We go through 18 molecules from patent US11883381B2, “ASH1L inhibitors and methods of treatment therewith” (The Regents of the University of Michigan, priority 2016, dated 2024).

The term IC50 denotes the concentration needed to halve the response being measured. Read a low IC50 as greater potency.

Experiment [1] addresses T1, ASH1L SET-BAH construct (amino acids 2069-2833) (Homo sapiens, UniProt Q9NR48).
T1 construct: ASH1L SET-BAH construct (amino acids 2069-2833) at 0.25 μM was incubated with 0.7 μM SAM; MOCR fusion (TEV-cleavable); made in house; host or cells: E. coli BL21(DE3) T1R
The experiment can be described thus: ASH1L histone methyltransferase assay (KMTase assay). Type of experiment: biochemical. The conditions noted are these: Table 6 section headings give the IC50 class; assay not given. On the procedure:
ASH1L Histone Methyltransferase Assay (KMTase Assay)
The reactions were stopped by spotting 5 μL of the reaction mixture on P81 cellulose squares (Reaction Biology). The P81 squares were dried for 45 min and washed five times with 50 mM sodium bicarbonate (pH 9.0), 10 min per wash. The P81 squares were then dried for 1 h, added to 10 mL of Ultima Gold scintillation cocktail (PerkinElmer), and analyzed using a Beckman scintillation counter.

Experiment [2] deals with Hoxa cluster, Meis1 genes in control cell line HM-2. In words: Quantitative RT-PCR of MLL fusion target genes, HM-2 control cell line. The class given is cell-based, mouse. The conditions noted are these: normalized to β-actin. On the procedure: (§1) Total RNA was extracted from cells using the RNeasy mini kit (QIAGEN), and then 100-2000 ng of total RNA was reverse transcribed using the High Capacity cDNA Reverse Transcription Kit (Applied Biosystems) according to the manufacturer's protocol. Real-time PCR was performed using a CFX96 Real-Time PCR Detection System (Biorad). TaqMan Gene Expression Master Mix and TaqMan Gene Expression Assays for mouse Gapdh (Mm99999915), mouse Ash1l (Mm00467322), mouse Hoxa7 (Mm00657963), mouse Hoxa9 (Mm00439364), mouse Hoxa10 (Mm00433966), mouse Meis1 (Mm00487664), and mouse B-actin (Mm00607939) were purchased from Thermo Fisher. Relative quantification of each gene transcript was carried out using the ΔΔCt method as described in the Biorad Real-Time PCR Applications Guide.

Experiment [3] concerns MLL fusion target genes (Hoxa cluster, Meis1) in MLL-AF9 cells. The experiment can be described thus: Quantitative RT-PCR of MLL fusion target genes, MLL-AF9 cells. The class given is cell-based, mouse. The settings on record: for Expression of MLL fusion target genes (Hoxa cluster, Meis1): MLL-AF9 cells, normalized to β-actin. On the procedure: as §1
For another experiment, the system named is MLL-AF9 cells. The experiment can be described thus: Differentiation (cytospin/Wright-Giemsa staining), MLL-AF9 cells. The class given is cell-based, mouse. On the procedure: Cytospin/Wrigtht-Giemsa Staining
1×10^5 MA9 mouse BMCs treated with compounds were harvested and placed in a Shandon EZ Single Cytofunnel (Thermo Fisher). Samples were centrifuged at 600 rpm for 5 min. The slides were air dried before staining with a Hema-3 kit (Thermo Fisher).

For experiment [4], the system named is MV4;11 cells (expressing MLL-AF4). The experiment can be described thus: Cell viability (MTT) assay, MV4;11 cells. Type of experiment: cell-based, human. The conditions noted are these: 4 days of treatment. The procedure:
(§2) MA9 (MLL-AF9 transformed), HM2 (Hoxa9/Meis1 transformed) murine bone marrow cells (BMC), MV4;11 and MOL13 human leukemia cells were plated at 1×10^5 cells/ml in 24-well plates, treated with 0.25% DMSO or compounds and cultured at 37° C. for 12 days. Every four days, the volume corresponding to 1×10^5 cells of DMSO-treated cells was spun down and resuspended in fresh media with fresh compound. At day 0 and each four day interval, 100 μl aliquots of the cell suspension were transferred to 96-well plates in quadruplicates. The quadruplicate samples were incubated for 4 days at 37° C., and then an MTT cell proliferation assay kit (Roche) was used to measure viable cells. Absorbance was read at 570 nm using a PHERAstar (BMG) microplate reader.

Experiment [5] relates to MOLM13 cells expressing MLL-AF9. In words: Cell viability (MTT) assay, MOLM13 cells. Type of experiment: cell-based, human. The conditions noted are these: 4 days of treatment. On the procedure: as §2
In experiment [6] the test system is murine bone marrow cells transformed with MLL-AF9 (MA9). In words: Cell viability (MTT) assay, MLL-AF9 transformed murine bone marrow cells. The settings on record: 8 days of treatment. Type of experiment: cell-based. The procedure:
as §2

Experiment [7] deals with HM-2 (Hoxa9/Meis1) negative control cell line. The experiment can be described thus: Differentiation, HM-2 control cell line. The settings on record: negative control cell line HM-2. The class given is cell-based, murine.
In experiment [8] the test system is human acute leukemia cells with various MLL translocations. In words: Cell proliferation in a panel of human acute leukemia cells. The class given is cell-based. On the procedure: as §2
Another experiment has as its target T2, ASH1L (Homo sapiens, UniProt Q9NR48).
T2 construct: endogenous in cells; host or cells: HeLa
In words: ASH1L degradation in HeLa cells. The class given is cell-based. The conditions noted are these: 0.05-50 μM.

Each structure is given as a SMILES string.

For the molecule `NC(=S)c1cccc(-c2cccc3[nH]ccc23)c1` [Compound 34], the IC50 in experiment [1] is above 100 µM.

In the case of `NC(=S)c1ccc(O)c(-c2cccc3[nH]ncc23)c1` [Compound 35], the half-maximal inhibitory concentration (IC50) in [1] is above 100 µM.

Turning to `NC(=S)c1cccc(-c2c[nH]c3ccc(O)cc23)c1` [Compound 69], the “Expression of MLL fusion target genes (Hoxa cluster, Meis1)” value in experiment [2] and in experiment [3] was “does not affect gene expression” each time.

As for `NC(=S)c1cccc(-c2c[nH]c3ccccc23)c1` [Compound 89], the IC50 in [1] lay within 20 to 100 µM.

Regarding `NC(=S)c1cccc(-c2cn(CCCC(F)(F)F)c3cc(CNCc4ccccc4)ccc23)c1` [Compound 120], the IC50 in experiment [1] is below 20 µM.

For `NC(=S)c1cccc(-c2cn(CC(CF)CF)c3cc(N)ccc23)c1` [Compound 126, 3-(6-amino-1-(3-fluoro-2-(fluoromethyl)propyl)-1H-indol-3-yl)benzothioamide], the Differentiation of cells entry in the experiment with MLL-AF9 cells is listed as “induces differentiation”; in experiment [7], “but not in negative control cell line HM-2”. Besides, the “Inhibition of cell proliferation” value in [4], in [5] and in experiment [6] was “Inhibition of cell proliferation” throughout. In addition, the entries for the “Expression of MLL fusion target genes (Hoxa cluster, Meis1)” value in experiment [2] and in experiment [3] were “has no effect on expression” and “downregulates expression”, respectively.

For `CC(=O)Nc1ccc2c(-c3cccc(C(N)=S)c3)cn(CC(CF)CF)c2c1` [Compound 136], the IC50 in [1] is below 20 µM.

The molecule `NC(=S)c1cccc(-c2cn(CC(CF)CF)c3cc(NC(=O)c4cc[nH]c4)ccc23)c1` [Compound 137] yielded an IC50 in experiment [1] below 20 µM.

In [1], `NC(=S)c1cccc(-c2cn(CC(CO)(C(F)F)C(F)F)c3cc(CO)ccc23)c1` [Compound 200] returned an IC50 below 20 µM.

As to `NC(=S)c1cccc(-c2cn(CC(CF)CF)c3cc(C(O)CC(F)(F)F)ccc23)c1` (stereo not drawn) [Compound 202], the 50% inhibitory concentration (IC50) in experiment [1] is below 20 µM.

Consider `NC(=S)c1cccc(-c2cn(CC(CF)CF)c3cc(CNC(=O)c4cnc[nH]4)ccc23)c1` [Compound 203], for which, in experiment [1], the concentration for half-maximal inhibition (IC50) was below 20 µM.

Regarding `NC(=O)NCc1ccc2c(-c3cccc(C(N)=S)c3)cn(CC(CF)CF)c2c1` [Compound 204], the IC50 in experiment [1] was below 20 µM.

Turning to `NC(=S)c1cccc(-c2cn(CC(CF)CF)c3cc(CNC(=O)CC(F)(F)F)ccc23)c1` [Compound 206], the half-inhibitory concentration (IC50) in [1] is below 20 µM.

Molecule `NC(=S)c1cccc(-c2cn(C(C(F)(F)F)C(F)(F)F)c3cc(CO)ccc23)c1` [Compound 207] had an IC50 in experiment [1] below 20 µM.

`NC(=S)c1cccc(-c2cn(CC(CO)(C(F)F)C(F)F)c3cc(C(O)CF)ccc23)c1` (stereo not drawn) [Compound 209] gave a 50% inhibitory concentration (IC50) in [1] below 20 µM.

Consider `NC(=S)c1cccc(-c2cn(-c3ccc[nH]3)c3cc(CO)ccc23)c1` [Compound 220], for which the IC50 in [1] was below 20 µM.

In the case of `NC(=S)c1cccc(-c2cn(CCCC(F)(F)F)c3cc(-c4ccn[nH]4)ccc23)c1` [Compound 260], the “Expression of MLL fusion target genes (Hoxa9, Hoxa10 and Meis1)” value in experiment [3] (MLL-AF9 transformed murine leukemia cells) is listed as “downregulates expression”. Moreover, the Cell proliferation entry in [8] is given as “inhibits cell proliferation”.

With `NC(=S)c1cccc(-c2cn(CC(CF)CF)c3cc(NC(=O)CCOCCOCCOCCOc4cccc5c4C(=O)N(C4CCC(=O)NC4=O)C5=O)ccc23)c1` (stereo not drawn) [Compound 301], in experiment [1], the IC50 is below 20 µM. Besides, the “Degradation of ASH1L” value on ASH1L was “Degradation of ASH1L induced”.
